Laboratory results reported in ChEMBL document CHEMBL5465560, “Selectivity Literature for EUbOPEN Chemogenomic Library” (2024).
Substitutions are numbered along the chain they refer to.

Experiments:
[1] = biological target: Receptor-type tyrosine-protein kinase FLT3 (Homo sapiens) (UniProt P36888); test: (§1) Selectivity interaction (KinomeScan (DiscoverX)) EUB0000618a FLT3; settings: at 10 µM
[2] = test system: T1, Receptor-type tyrosine-protein kinase FLT3 (Homo sapiens), P36888 [R834Q]; test: as §1; settings: at 10 µM
T1 sequence (whole entry): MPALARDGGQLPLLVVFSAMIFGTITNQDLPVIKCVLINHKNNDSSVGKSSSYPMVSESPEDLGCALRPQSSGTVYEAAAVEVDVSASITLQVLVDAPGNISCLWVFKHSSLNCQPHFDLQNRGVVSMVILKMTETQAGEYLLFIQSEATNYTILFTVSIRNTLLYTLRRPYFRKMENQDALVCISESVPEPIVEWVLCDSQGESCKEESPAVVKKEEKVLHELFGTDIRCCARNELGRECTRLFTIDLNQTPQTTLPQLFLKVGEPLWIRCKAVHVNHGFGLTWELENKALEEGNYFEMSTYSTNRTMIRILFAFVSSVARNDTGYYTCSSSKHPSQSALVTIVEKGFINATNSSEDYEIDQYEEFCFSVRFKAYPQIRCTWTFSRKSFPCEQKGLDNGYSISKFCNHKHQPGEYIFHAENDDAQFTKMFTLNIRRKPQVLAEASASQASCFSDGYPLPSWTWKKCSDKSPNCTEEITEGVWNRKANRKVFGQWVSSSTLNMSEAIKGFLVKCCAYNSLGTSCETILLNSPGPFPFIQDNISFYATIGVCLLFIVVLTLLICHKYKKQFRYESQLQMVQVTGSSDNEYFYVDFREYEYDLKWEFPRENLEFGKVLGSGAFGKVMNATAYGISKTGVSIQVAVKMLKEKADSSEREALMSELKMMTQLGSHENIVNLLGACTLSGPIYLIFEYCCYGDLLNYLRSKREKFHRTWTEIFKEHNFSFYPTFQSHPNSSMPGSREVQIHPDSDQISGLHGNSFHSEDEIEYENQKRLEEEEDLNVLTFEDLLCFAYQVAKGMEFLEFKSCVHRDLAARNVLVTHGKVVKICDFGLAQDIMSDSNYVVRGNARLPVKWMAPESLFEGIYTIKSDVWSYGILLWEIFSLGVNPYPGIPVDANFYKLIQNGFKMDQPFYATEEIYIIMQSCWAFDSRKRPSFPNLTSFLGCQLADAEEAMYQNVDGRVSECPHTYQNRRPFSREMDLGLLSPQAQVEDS

[3] = test system: T2, Receptor-type tyrosine-protein kinase FLT3 (Homo sapiens), P36888 [D835H]; test: as §1; settings: at 10 µM
T2 sequence (whole entry): T1 sequence (whole entry) with Q834R, D835H

[4] = test system: T3, Receptor-type tyrosine-protein kinase FLT3 (Homo sapiens), P36888 [K663Q]; test: as §1; settings: at 10 µM
T3 sequence (whole entry): T1 sequence (whole entry) with K663Q, Q834R

[5] = biological target: G protein-coupled receptor kinase 6 (Homo sapiens) (UniProt P43250); test: Selectivity interaction (Upstate Kinase Profiler service (Millipore)) EUB0000056c GRK6; settings: at 1 µM
G protein-coupled receptor kinase 6 (Homo sapiens), sequence (P43250 whole entry, looked up): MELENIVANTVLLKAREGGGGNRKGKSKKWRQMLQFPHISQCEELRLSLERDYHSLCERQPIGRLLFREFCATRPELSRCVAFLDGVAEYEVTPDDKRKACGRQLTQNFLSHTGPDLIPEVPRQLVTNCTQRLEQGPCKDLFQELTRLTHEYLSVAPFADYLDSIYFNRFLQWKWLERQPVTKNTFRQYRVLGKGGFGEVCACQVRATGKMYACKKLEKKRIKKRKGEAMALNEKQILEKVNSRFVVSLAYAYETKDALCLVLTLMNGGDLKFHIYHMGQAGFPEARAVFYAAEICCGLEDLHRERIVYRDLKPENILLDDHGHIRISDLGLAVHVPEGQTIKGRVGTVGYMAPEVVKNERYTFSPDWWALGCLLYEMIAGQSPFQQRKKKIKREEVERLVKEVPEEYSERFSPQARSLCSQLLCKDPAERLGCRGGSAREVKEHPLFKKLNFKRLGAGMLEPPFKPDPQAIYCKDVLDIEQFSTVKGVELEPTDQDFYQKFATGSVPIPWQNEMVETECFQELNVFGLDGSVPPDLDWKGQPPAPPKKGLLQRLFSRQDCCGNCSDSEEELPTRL

What does the source list for `O[C@H]1CC[C@H](Nc2ncc3nc(Nc4c(F)cc(F)cc4F)n([C@H]4CCOC4)c3n2)CC1`?
% of control [1]: 97%; % of control [2]: 91%; % of control [3]: 67%; % of control [4]: 100%

How did the % of inhibition [5] turn out when `Cc1ccc(-c2ccc3c(ccc4sc5c(c43)NC[C@@H](C)NC5=O)n2)cn1` was run?
The % of inhibition was 10%.
